Measurements as given in patent US20240360157A1, “TYK2 INHIBITORS” (BIOGEN MA INC., priority 2021, published 2024).

Tests used:
Type in all cases: biochemical
[1] = molecular target: human JAK3 catalytic kinase (JH1) domain (Homo sapiens (Human), UniProt P52333); test: ADP-Glo Kinase Assay, recombinant JAK3 catalytic kinase (JH1) domain; conditions: recombinant JH1 domain 0.3 nM, 4 μM ATP, JAK3-974 peptide, mean, read-out: JAK3 biochem IC50 (nM) Mean
Procedure, shortened: (§1)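 ADP-Glo luminescence with 50 μM peptide and 100 min reactions: JAK1 4 nM with JAK3-342 peptide; JAK2, JAK3 and TYK2 at 0.2, 0.3 and 2 nM with JAK3-974 peptide. Compounds tested from 10 or 1 μM top, 11 points, 3-fold. IC50 from a 4-parameter logistic fit of normalized activity.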

[2] = molecular target: human JAK1 catalytic kinase (JH1) domain (Homo sapiens (Human), UniProt P23458); test: ADP-Glo Kinase Assay, recombinant JAK1 catalytic kinase (JH1) domain; conditions: recombinant JH1 domain 4 nM, 35 μM ATP, JAK3-342 peptide, mean, read-out: JAK1 biochem IC50 (nM) Mean
Procedure, shortened: as §1

[3] = molecular target: human JAK2 catalytic kinase (JH1) domain (Homo sapiens (Human), UniProt O60674); test: ADP-Glo Kinase Assay, recombinant JAK2 catalytic kinase (JH1) domain; conditions: recombinant JH1 domain 0.2 nM, 15 μM ATP, JAK3-974 peptide, mean, read-out: JAK2 biochem IC50 (nM) Mean
Procedure, shortened: as §1

[4] = molecular target: human TYK2 catalytic kinase (JH1) domain (Homo sapiens (Human), UniProt P29597); test: ADP-Glo Kinase Assay, recombinant TYK2 catalytic kinase (JH1) domain; conditions: recombinant JH1 domain 2 nM, 10 μM ATP, JAK3-974 peptide, mean, read-out: TYK2 biochem IC50 (nM) Mean
Procedure, shortened: as §1

Chain of human JAK1 catalytic kinase (JH1) domain (P23458 875-1153): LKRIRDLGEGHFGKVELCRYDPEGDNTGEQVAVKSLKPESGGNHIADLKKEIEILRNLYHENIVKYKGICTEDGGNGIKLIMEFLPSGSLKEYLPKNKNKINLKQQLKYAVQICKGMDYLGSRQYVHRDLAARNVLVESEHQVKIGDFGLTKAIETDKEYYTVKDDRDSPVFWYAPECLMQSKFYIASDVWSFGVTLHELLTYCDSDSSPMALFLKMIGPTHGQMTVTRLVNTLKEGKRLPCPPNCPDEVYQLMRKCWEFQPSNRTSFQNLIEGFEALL
Chain of human JAK3 catalytic kinase (JH1) domain (P52333 822-1111): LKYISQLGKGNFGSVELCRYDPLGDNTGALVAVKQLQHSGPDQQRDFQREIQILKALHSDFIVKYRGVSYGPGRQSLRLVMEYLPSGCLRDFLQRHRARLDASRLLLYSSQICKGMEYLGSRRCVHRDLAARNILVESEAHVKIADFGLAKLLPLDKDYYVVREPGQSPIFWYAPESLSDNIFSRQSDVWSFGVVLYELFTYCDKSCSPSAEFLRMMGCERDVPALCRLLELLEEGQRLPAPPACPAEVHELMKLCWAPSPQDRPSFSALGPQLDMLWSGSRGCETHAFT
Chain of human JAK2 catalytic kinase (JH1) domain (O60674 849-1124): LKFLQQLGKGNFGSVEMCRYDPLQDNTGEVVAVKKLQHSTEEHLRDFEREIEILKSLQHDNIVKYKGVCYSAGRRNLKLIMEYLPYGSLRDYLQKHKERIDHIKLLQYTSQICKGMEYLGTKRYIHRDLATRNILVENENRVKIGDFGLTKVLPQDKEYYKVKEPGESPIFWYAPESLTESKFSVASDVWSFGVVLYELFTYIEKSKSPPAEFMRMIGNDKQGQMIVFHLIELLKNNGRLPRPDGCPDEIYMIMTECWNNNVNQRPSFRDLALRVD
Chain of human TYK2 catalytic kinase (JH1) domain (P29597 897-1176): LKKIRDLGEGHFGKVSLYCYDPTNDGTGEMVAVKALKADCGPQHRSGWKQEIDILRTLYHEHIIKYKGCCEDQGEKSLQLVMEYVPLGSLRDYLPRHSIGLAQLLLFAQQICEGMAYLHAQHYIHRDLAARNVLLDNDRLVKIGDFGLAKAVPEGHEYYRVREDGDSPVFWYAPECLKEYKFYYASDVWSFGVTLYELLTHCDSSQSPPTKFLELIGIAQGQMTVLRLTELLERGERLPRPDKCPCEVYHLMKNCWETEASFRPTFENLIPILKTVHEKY

SMILES: Cc1cc(-c2cc3c(N4CC5CCC(C4)N5C(=O)[C@@H]4C[C@H]4F)ccnn3c2)ncn1 [Example 106, ((1S,2R)-2-fluorocyclopropyl)(3-(6-(6-methylpyrimidin-4-yl)pyrrolo[1,2-b]pyridazin-4-yl)-3,8-diazabicyclo[3.2.1]octan-8-yl)methanone]
- IC50 [1]: 3200 nM
- IC50 [2]: 448 nM
- IC50 [3]: 178 nM
- IC50 [4]: 13.7 nM

SMILES: COc1ncnc(-c2cc3c(N4CC5CCC(C4)N5C(=O)[C@@H]4C[C@H]4F)ccnn3c2)c1F [Example 107, (3-(6-(5-fluoro-6-methoxypyrimidin-4-yl)pyrrolo[1,2-b]pyridazin-4-yl)-3,8-diazabicyclo[3.2.1]octan-8-yl)((1S,2R)-2-fluorocyclopropyl)methanone]
- IC50 [1]: 10000 nM
- IC50 [2]: 862 nM
- IC50 [3]: 1680 nM
- IC50 [4]: 92.3 nM

SMILES: O=C([C@@H]1C[C@H]1F)N1C2CCC1CN(c1ccnn3cc(-c4ncc(F)cn4)cc13)C2 [Example 108, ((1S,2R)-2-fluorocyclopropyl)(3-(6-(5-fluoropyrimidin-2-yl)pyrrolo[1,2-b]pyridazin-4-yl)-3,8-diazabicyclo[3.2.1]octan-8-yl)methanone]
- IC50 [1]: 3920 nM
- IC50 [2]: 909 nM
- IC50 [3]: 1050 nM
- IC50 [4]: 48 nM

SMILES: O=C([C@@H]1C[C@H]1F)N1C2CCC1CN(c1ccnn3cc(-c4ccnnc4)cc13)C2 [Example 109, ((1S,2R)-2-fluorocyclopropyl)(3-(6-(pyridazin-4-yl)pyrrolo[1,2-b]pyridazin-4-yl)-3,8-diazabicyclo[3.2.1]octan-8-yl)methanone]
- IC50 [1]: 847 nM
- IC50 [2]: 38 nM
- IC50 [3]: 45 nM
- IC50 [4]: 3.2 nM

SMILES: O=C([C@@H]1C[C@H]1F)N1C2CCC1CN(c1ncnn3cc(-c4ccc(=O)n(C(F)F)c4)cc13)C2 [Example 110, 1-(difluoromethyl)-5-(4-(8-((1S,2R)-2-fluorocyclopropane-1-carbonyl)-3,8-diazabicyclo[3.2.1]octan-3-yl)pyrrolo[2,1-f][1,2,4]triazin-6-yl)pyridin-2(1H)-one]
- IC50 [1]: 3960 nM
- IC50 [2]: 758 nM
- IC50 [3]: 812 nM
- IC50 [4]: 56.5 nM

SMILES: O=C([C@@H]1C[C@H]1F)N1C2CCC1CN(c1ccnn3cc(-c4ccnc(OC(F)F)c4)cc13)C2 [Example 111, (3-(6-(2-(difluoromethoxy)pyridin-4-yl)pyrrolo[1,2-b]pyridazin-4-yl)-3,8-diazabicyclo[3.2.1]octan-8-yl)((1S,2R)-2-fluorocyclopropyl)methanone]
- IC50 [1]: 981 nM
- IC50 [2]: 62 nM
- IC50 [3]: 57 nM
- IC50 [4]: 3.6 nM

SMILES: O=C([C@@H]1C[C@H]1F)N1C2CCC1CN(c1ccnn3cc(-c4ccnc(C(F)(F)F)c4)cc13)C2 [Example 112, ((1S,2R)-2-fluorocyclopropyl)(3-(6-(2-(trifluoromethyl)pyridin-4-yl)pyrrolo[1,2-b]pyridazin-4-yl)-3,8-diazabicyclo[3.2.1]octan-8-yl)methanone]
- IC50 [1]: 835 nM
- IC50 [2]: 37 nM
- IC50 [3]: 38 nM
- IC50 [4]: 2.9 nM

SMILES: Cc1ccc(-c2cc3c(N4CC5CCC(C4)N5C(=O)[C@@H]4C[C@H]4F)ccnn3c2)cn1 [Example 113, ((1S,2R)-2-fluorocyclopropyl)(3-(6-(6-methylpyridin-3-yl)pyrrolo[1,2-b]pyridazin-4-yl)-3,8-diazabicyclo[3.2.1]octan-8-yl)methanone]
- IC50 [1]: 672 nM
- IC50 [2]: 69 nM
- IC50 [3]: 56 nM
- IC50 [4]: 3 nM

SMILES: COc1ccc(-c2cc3c(N4CC5CCC(C4)N5C(=O)[C@@H]4C[C@H]4F)ccnn3c2)cn1 [Example 114, ((1S,2R)-2-fluorocyclopropyl)(3-(6-(6-methoxypyridin-3-yl)pyrrolo[1,2-b]pyridazin-4-yl)-3,8-diazabicyclo[3.2.1]octan-8-yl)methanone]
- IC50 [1]: 684 nM
- IC50 [2]: 54 nM
- IC50 [3]: 47 nM
- IC50 [4]: 3.8 nM
